Common to all, as to assay: Assay B: in vitro antibacterial activity, broth microdilution MIC (NCCLS)
Common to all, as to type: cell-based

One test has as its system Escherichia coli JUHL. The note with it: Table 2, Assay B, cation-adjusted Mueller Hinton broth, 35° C., 16 to 20 hr; code D = Escherichia coli JUHL; unit assumed. The essentials:
(§1)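 MIC is the lowest concentration with no visible growth after serial two-fold dilution in cation-adjusted Mueller Hinton broth, approximately 5×10^5 CFU/mL inoculum, 16-20 h at 35 °C in air (NCCLS). Broth for H. influenzae gets 5 g/L yeast extract, 0.3 mmol/L hematin and 15 mg/L NAD, for S. pneumoniae 3% lysed horse blood; both incubated 20-24 h.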

Test [1] has as its system Streptococcus pneumoniae ATCC 6303. The note with it: Table 2, Assay B, Mueller Hinton broth with 3% lysed horse blood, 20 to 24 hr; code F = Streptococcus pneumoniae ATCC 6303; unit assumed. The essentials:
as §1

Test [2] concerns Staphylococcus aureus ATCC 6538P. The note with it: Table 2, Assay B, cation-adjusted Mueller Hinton broth, 35° C., 16 to 20 hr; code A = Staphylococcus aureus ATCC 6538P; unit assumed. In short, it runs like this: as §1
The test system of test [3] is Enterococcus faecalis PIU 1967. Conditions: Table 2, Assay B, cation-adjusted Mueller Hinton broth, 35° C., 16 to 20 hr; code B = Enterococcus faecalis PIU 1967; unit assumed. In short, it runs like this:
as §1

The test system of test [4] is Haemophilus influenzae DILL AMP R. Conditions: Table 2, Assay B, Mueller Hinton broth with yeast extract, hematin and NAD, 20 to 24 hr; code E = Haemophilus influenzae DILL AMP R; unit assumed. In short, it runs like this: as §1

As to `COc1c(-c2cc3c(s2)CCCC3CN2CCOCC2)ccc2c(=O)c(C(=O)O)cn(C3CC3)c12` (stereo not drawn) [Example 126, 1-cyclopropyl-8-methoxy-7-(4-(4-morpholinylmethyl)-4,5,6,7-tetrahydro-1-benzothien-2-yl)-4-oxo-1,4-dihydro-3-quinolinecarboxylic acid], the Antibacterial Activity (MIC's), D in the test with Escherichia coli JUHL was 16 µg/mL. The same compound yielded an Antibacterial Activity (MIC's), F in test [1] of 0.5 µg/mL. Besides, the Antibacterial Activity (MIC's), A in test [2] amounted to 0.004 µg/mL. In addition, the Antibacterial Activity (MIC's), B in test [3] turned out to be 0.5 µg/mL. In test [4], this compound showed an Antibacterial Activity (MIC's), E of 1 µg/mL.
`COc1c(-c2cc3c(s2)CCCC3CN(C)C)ccc2c(=O)c(C(=O)O)cn(C3CC3)c12` (stereo not drawn) [Example 127, 1-cyclopropyl-7-(4-((dimethylamino)methyl)-4,5,6,7-tetrahydro-1-benzothien-2-yl)-8-methoxy-4-oxo-1,4-dihydro-3-quinolinecarboxylic acid] yielded an Antibacterial Activity (MIC's), D in the test on Escherichia coli JUHL of 1 µg/mL. In addition, the Antibacterial Activity (MIC's), F in test [1] is 0.5 µg/mL. Besides, the Antibacterial Activity (MIC's), A in test [2] stood at 0.5 µg/mL. In test [3], the Antibacterial Activity (MIC's), B worked out at 0.25 µg/mL. Moreover, the Antibacterial Activity (MIC's), E in test [4] was found to be 0.125 µg/mL.
In the test with Escherichia coli JUHL, `COc1c(-c2cc3c(s2)CCCC3NC2CCN(C)CC2)ccc2c(=O)c(C(=O)O)cn(C3CC3)c12.Cl.Cl` (stereo not drawn) [Example 133, 1-cyclopropyl-8-methoxy-7-(4-((1-methyl-4-piperidinyl)amino)-4,5,6,7-tetrahydro-1-benzothien-2-yl)-4-oxo-1,4-dihydro-3-quinolinecarboxylic acid dihydrochloride] showed an Antibacterial Activity (MIC's), D of 1 µg/mL. For the same compound, the Antibacterial Activity (MIC's), F in test [1] stood at 1 µg/mL. The same compound gave an Antibacterial Activity (MIC's), A in test [2] of 0.5 µg/mL. This compound had an Antibacterial Activity (MIC's), B in test [3] of 1 µg/mL. The compound further had an Antibacterial Activity (MIC's), E in test [4] of 1 µg/mL.
Compound `COc1c(-c2cc3c(s2)S(=O)(=O)CCC3O)ccc2c(=O)c(C(=O)O)cn(C3CC3)c12` (stereo not drawn) [Example 135, 1-cyclopropyl-7-(4-hydroxy-7,7-dioxido-5,6-dihydro-4H-thieno[2,3-b]thiopyran-2-yl)-8-methoxy-4-oxo-1,4-dihydro-3-quinolinecarboxylic acid] gave an Antibacterial Activity (MIC's), D in the test on Escherichia coli JUHL of 16 µg/mL. In test [1], the Antibacterial Activity (MIC's), F amounted to 4 µg/mL. The same compound registered an Antibacterial Activity (MIC's), A in test [2] of 1 µg/mL. In test [3], this compound displayed an Antibacterial Activity (MIC's), B of 1 µg/mL. In addition, the Antibacterial Activity (MIC's), E in test [4] is 1 µg/mL.
In turn, `COc1c(-c2cc3c(s2)S(=O)(=O)CCC3N)ccc2c(=O)c(C(=O)O)cn(C3CC3)c12.Cl` (stereo not drawn) [Example 143, 7-(4-amino-7,7-dioxido-5,6-dihydro-4H-thieno[2,3-b]thiopyran-2-yl)-1-cyclopropyl-8-methoxy-4-oxo-1,4-dihydro-3-quinolinecarboxylic acid hydrochloride] registered an Antibacterial Activity (MIC's), D in the test with Escherichia coli JUHL of 64 µg/mL. This compound also gave an Antibacterial Activity (MIC's), F in test [1] of 0.5 µg/mL. This compound also came in with an Antibacterial Activity (MIC's), A in test [2] of 0.125 µg/mL. For the same compound, the Antibacterial Activity (MIC's), B in test [3] came out at 0.5 µg/mL. The Antibacterial Activity (MIC's), E in test [4] was 0.125 µg/mL.
For `COc1c(-c2cc3c(s2)CCCC3NCCO)ccc2c(=O)c(C(=O)O)cn(C3CC3)c12.Cl` (stereo not drawn) [Example 155, 1-cyclopropyl-7-(4-((2-hydroxyethyl)amino)-4,5,6,7-tetrahydro-1-benzothien-2-yl)-8-methoxy-4-oxo-1,4-dihydro-3-ouinolinecarboxylic acid hydrochloride], the Antibacterial Activity (MIC's), D in the test on Escherichia coli JUHL is 0.5 µg/mL. The compound further yielded an Antibacterial Activity (MIC's), F in test [1] of 0.03 µg/mL. This compound registered an Antibacterial Activity (MIC's), A in test [2] of 0.03 µg/mL. Besides, the Antibacterial Activity (MIC's), B in test [3] was 0.125 µg/mL. The compound also gave an Antibacterial Activity (MIC's), E in test [4] of 0.06 µg/mL.
As for `Cl.NC1CCCc2sc(-c3nc4c(cc3F)c(=O)c(C(=O)O)cn4C3CC3)cc21` (stereo not drawn) [Example 156, 7-(4-amino-4,5,6,7-tetrahydro-1-benzothien-2-yl)-1-cyclopropyl-6-fluoro-4-oxo-1,4-dihydro[1,8]naphthyridine-3-carboxylic acid hydrochloride], the Antibacterial Activity (MIC's), D in the test with Escherichia coli JUHL is 0.03 µg/mL. Moreover, the Antibacterial Activity (MIC's), F in test [1] came to 0.06 µg/mL. Besides, the Antibacterial Activity (MIC's), A in test [2] was found to be 0.03 µg/mL. Also, in test [3], the Antibacterial Activity (MIC's), B was 0.125 µg/mL. The compound also returned an Antibacterial Activity (MIC's), E in test [4] of 0.015 µg/mL.
Take `COc1c(-c2cc3c(s2)CCC/C3=N\OCc2cccnc2)ccc2c(=O)c(C(=O)O)cn(C3CC3)c12` [Example 182, 1-cyclopropyl-8-methoxy-4-oxo-7-((4E)-4-((3-pyridinylmethoxy)imino)-4,5,6,7-tetrahydro-1-benzothien-2-yl)-1,4-dihydro-3-quinolinecarboxylic acid]: the Antibacterial Activity (MIC's), D in the test with Escherichia coli JUHL came out at 1 µg/mL. The Antibacterial Activity (MIC's), F in test [1] was found to be 0.25 µg/mL. In addition, in test [2], the Antibacterial Activity (MIC's), A worked out at 0.03 µg/mL. In addition, the Antibacterial Activity (MIC's), B in test [3] was determined as 0.25 µg/mL. The compound further came in with an Antibacterial Activity (MIC's), E in test [4] of 0.125 µg/mL.
In the test on Escherichia coli JUHL, `COc1c(-c2cc3c(s2)CCC(C)C3O)ccc2c(=O)c(C(=O)O)cn(C3CC3)c12` (stereo not drawn) [Example 185, 1-cyclopropyl-7-(4-hydroxy-5-methyl-4,5,6,7-tetrahydro-1-benzothien-2-yl)-8-methoxy-4-oxo-1,4-dihydro-3-quinolinecarboxylic acid] returned an Antibacterial Activity (MIC's), D of 0.5 µg/mL. For the same compound, the Antibacterial Activity (MIC's), F in test [1] came to 0.5 µg/mL. The Antibacterial Activity (MIC's), A in test [2] came out at 0.015 µg/mL. The same compound showed an Antibacterial Activity (MIC's), B in test [3] of 0.25 µg/mL. The compound also registered an Antibacterial Activity (MIC's), E in test [4] of 0.125 µg/mL.
Regarding `COc1c(-c2cc3c(s2)CCCC3N2CC(O)C2)ccc2c(=O)c(C(=O)O)cn(C3CC3)c12.Cl` (stereo not drawn) [Example 198, 1-cyclopropyl-7-(4-(3-hydroxy-1-azetidinyl)-4,5,6,7-tetrahydro-1-benzothien-2-yl)-8-methoxy-4-oxo-1,4-dihydro-3-guinolinecarboxvlic acid hydrochloride], in the test with Escherichia coli JUHL, the Antibacterial Activity (MIC's), D worked out at 0.5 µg/mL. Besides, the Antibacterial Activity (MIC's), F in test [1] worked out at 0.125 µg/mL. The compound further had an Antibacterial Activity (MIC's), A in test [2] of 0.25 µg/mL. Further, the Antibacterial Activity (MIC's), B in test [3] stood at 0.25 µg/mL. In test [4], this compound came in with an Antibacterial Activity (MIC's), E of 0.25 µg/mL.
For `COc1c(-c2cc3c(s2)CCC(C)C3N)ccc2c(=O)c(C(=O)O)cn(C3CC3)c12.Cl` (stereo not drawn) [Example 199, 7-(4-amino-5-methyl-4,5,6,7-tetrahydro-1-benzothien-2-yl)-1-cyclopropyl-8-methoxy-4-oxo-1,4-dihydro-3-quinolinecarboxylic acid hydrochloride], the Antibacterial Activity (MIC's), D with Escherichia coli JUHL is 0.25 µg/mL. This compound also registered an Antibacterial Activity (MIC's), F in test [1] of 0.06 µg/mL. Besides, the Antibacterial Activity (MIC's), A in test [2] stood at 0.03 µg/mL. In addition, in test [3], the Antibacterial Activity (MIC's), B is 0.125 µg/mL. In test [4], this compound yielded an Antibacterial Activity (MIC's), E of 0.125 µg/mL.
In the test on Escherichia coli JUHL, `Cl.NC1CCCc2sc(-c3ccc4c(=O)c(C(=O)O)cn(C5CC5)c4n3)cc21` (stereo not drawn) [Example 200, 7-(4-amino-4,5,6,7-tetrahydro-1-benzothien-2-yl)-1-cyclopropyl-4-oxo-1,4-dihydro[1,8]naphthyridine-3-carboxylic acid hydrochloride] showed an Antibacterial Activity (MIC's), D of 0.06 µg/mL. Besides, the Antibacterial Activity (MIC's), F in test [1] stood at 0.125 µg/mL. The Antibacterial Activity (MIC's), A in test [2] worked out at 0.03 µg/mL. The compound also registered an Antibacterial Activity (MIC's), B in test [3] of 0.125 µg/mL. This compound came in with an Antibacterial Activity (MIC's), E in test [4] of 0.03 µg/mL.

(Values after patent US20020049223A1, “Quinoline and naphthyridine carboxylic acid antibacterials” (priority 1999, published 2002).)
